In test [1] the test system is U87MG. Briefly: Cell adhesion assay on matrigel coated wells. The format is cell-based, human. To be noted: percent of adhesion with respect to the control (100%).
Another test has as its system U2OS. Briefly: Matrigel cell invasion assay. The format is cell-based, human. Set-up: key to Invasion Assay Inhibition (%) U2OS: +++: > 90%; ++: 50-90 %; +: < 50%; -: Not active. Conditions: for inhibition at 2.5 µM: Homo sapiens, Conc. 2.5 µM.
Test [2] relates to U87MG. Briefly: Matrigel cell invasion assay. Format: cell-based, human. Set-up: key to Invasion Assay Inhibition (%) U87MG: +++: > 90%; ++: 50-90 %; +: < 50%; -: Not active. Conditions: for inhibition at 2.5 µM: Homo sapiens, U-87 MG, Conc. 2.5 µM.
The subject of test [3] is HT1080 (human fibrosarcoma). Briefly: Cell adhesion assay on matrigel coated wells. Format: cell-based. Conditions: percent of adhesion with respect to the control (100%). Here is the method:
Cell surface, non-integrin molecules such as heparan sulfate proteoglycans (HSPGs) may be involved in the regulation of early adhesive stages of cell-ECM interactions. A cell adhesion assay has been employed to determine if the newly designed heparanase inhibitors were able to interfere with adhesion properties of cancer cells.
HT1080 (human fibrosarcoma) cells were treated for 18-20 h with test compounds in complete medium supplemented with 10% FCS. Then cells were collected, washed in complete medium, and added to matrigel coated wells in triplicate, at previously identified optimal seeding density, and incubated at 37 °C in complete medium for times ranging from 15 minutes to 4h, according to the cell line. After incubation, the wells were washed three times with serum-free medium and the remaining firmly attached cells were stained with crystal-violet 0.1%. Optical density was measured at 560 nm by Victor 3 (Perkin-Elmer) plate analyzer. Each experiment was repeated three times.

In test [4] the test system is HT1080 (human fibrosarcoma). Put plainly: Matrigel cell invasion assay. The format is cell-based. To be noted: for inhibition at 2.5 µM: HT-1080, HT1080, Conc. 2.5 µM. The procedure:
Heparanase inhibitors were then evaluated for their activity on the invasive potential of HT1080 (human fibrosarcoma) human cell lines, using the Matrigel cell invasion assay which allows to assess the cell invasion ability of malignant and normal cells.
Invasion assay was performed using BioCoat cell culture inserts (BioCoat 8.0µm PET Membrane 24 Well Permeable Supports, Corning). Filters were coated with 100 µl of 300 µg/ml Matrigel dissolved in coating buffer (0.01M Tris pH 8.0, 0.7% NaCl) (Becton-Dickinson Sciences). DMEM (Dulbecco's Modified Eagle's Medium) containing 5% FBS was added to the lower chambers. Cells were pre-treated with heparanase inhibitors for 24 h, detached and added to the upper chambers in media containing the inhibitors. Cells were allowed to invade for 24 h at 37°C in a CO2 incubator and then unmigrated cells were removed from the upper chamber with a cotton swab. The invading cells were fixed, stained with 0.1% crystal violet for 10 min at room temperature, photographed and counted under inverted microscope.
Test compounds were analyzed at fixed concentration for several fields, in duplicates. Activity of test compounds was compared to the reference compound. Activity of most interesting compound was confirmed in a second cell invasion assay. Data were expressed as the percent invasion with respect to cell migration through uncoated insert membrane. (Table 5)

Test [5] deals with U2OS (human osteosarcoma). Put plainly: SRB Cell Cytotoxicity Assay. The format is cell-based. Conditions: treated for 72h, read-out: Concentration of test compounds at which the cell growth is inhibited by 50 % U2OS. The source says: (§1) SRB Cell Cytotoxicity Assay is an assay based upon the quantitative staining of cellular proteins by sulforhodamine B (SRB). This assay can be used for high-throughput drug screening (Vichai & Kirkitara, Nature Protocol. 2006, 1, 112). Sulforhodamine B is an anionic aminoxanthene dye that forms an electrostatic complex with the basic amino acid residues of proteins under moderately acid conditions, which provides a sensitive linear response.
(§2) To assess a putative antiproliferative activity of the selected compounds, HT1080 (human fibrosarcoma), U87MG (human glioblastoma astrocytoma) and U2OS (human osteosarcoma) cell lines were treated for 72h, in triplicate, with increasing concentrations of heparanase inhibitors. Inhibition of cell proliferation was then measured by the classical colorimetric SRB Cell Cytotoxicity assay. Absorbance was measured by spectrophotometer at a wavelength of 510 nm and cell proliferation was determined as percent with respect to control cells (cells treated with the vehicle alone). EC50 values were then determined by GraphPad Prism.

The subject of test [6] is U87MG (human glioblastoma astrocytoma). Put plainly: SRB Cell Cytotoxicity Assay. Conditions: U-87 MG, treated for 72h, read-out: Concentration of test compounds at which the cell growth is inhibited by 50 % U87MG. Format: cell-based.
Source text: as §1, §2

The subject of test [7] is HT1080 (human fibrosarcoma). Briefly: SRB Cell Cytotoxicity Assay. Format: cell-based. Conditions: HT-1080, HT1080, treated for 72h, read-out: Concentration of test compounds at which the cell growth is inhibited by 50 % HT1080.
Source text: as §1, §2

The subject of a further test is MMP-9. Briefly: Real-Time Quantitative PCR of pro-angiogenic genes in HT1080 cells. The format is cell-based, human. Conditions: 24 h, Conc 2.5 uM. The procedure: (§3) To evaluate the effect of heparanase inhibitors on the tumor transcription of genes encoding for proangiogenic factors, such as FGF1/2, VEGF, MMP-9, HSPE-1, the relative mRNA levels were analyzed by quantitative Real-Time Quantitative PCR. To perform the assay, HT1080 (human fibrosarcoma) cells were cultured in complete medium containing 10%FCS (fetal calf serum). Cells were plated in 24-well plates and treated at fixed concentration (i.e., highest non-toxic concentration) of test compounds. After 24 h, cells were detached, collected and total RNA extracted by RNeasy Mini Kit (QIAGEN). Following reverse transcription step, FGF1/2, VEGF, MMP-9, HSPE-1 mRNA levels, were quantified by qPCR using the advanced Universal SYBR Green Supermix (Bio Rad) and ABI PRISM 7900HT Thermal Cycler System (Perkin Elmer), according to the manufacturer's instructions. Appropriate no-RT and non-template controls were included in each 96-well PCR reaction, and dissociation analysis was performed at the end of each run to confirm the specificity of the reaction. Relative levels of RNA were calculated using the ddCt method. Standard curve and sample data were run in duplicate. In the Table a mean value is reported.

A further test relates to FGF-2. The test is described as above. The format is cell-based, human. Conditions: 24 h, Conc 2.5 uM. The procedure: as §3
The next test deals with FGF-1. Described as above. To be noted: 24 h, Conc 2.5 uM. The format is cell-based, human. Here is the method:
as §3

In another test the test system is VEGF. The test is described as above. Format: cell-based, human. Conditions: 24 h, Conc 2.5 uM. The procedure: as §3
The subject of test [8] is genes encoding for proangiogenic factors, such as FGF1/2, VEGF, MMP-9, HSPE-1. Put plainly: Real-Time Quantitative PCR in HT1080 cells. Format: cell-based, human. To be noted: compared with SST0001 tested at 10 µM. Here is the method:
as §3

A further test concerns the target T1, heparanase (Homo sapiens, UniProt Q9Y251).
T1 construct: 100 µM fondaparinux, 2.5 nM heparanase and serial dilutions of test compounds
T1 sequence (Q9Y251 158-543 limits assumed): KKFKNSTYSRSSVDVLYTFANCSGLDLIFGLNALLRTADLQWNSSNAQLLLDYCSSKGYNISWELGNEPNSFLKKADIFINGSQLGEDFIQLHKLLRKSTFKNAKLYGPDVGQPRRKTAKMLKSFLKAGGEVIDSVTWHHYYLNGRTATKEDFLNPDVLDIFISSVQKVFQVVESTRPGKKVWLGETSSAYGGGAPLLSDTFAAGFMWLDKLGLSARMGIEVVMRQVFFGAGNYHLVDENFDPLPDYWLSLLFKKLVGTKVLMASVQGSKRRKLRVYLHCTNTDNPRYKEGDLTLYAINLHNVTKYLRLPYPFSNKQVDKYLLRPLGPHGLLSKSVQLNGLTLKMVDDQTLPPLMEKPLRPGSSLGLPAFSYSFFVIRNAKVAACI
T1 sequence (Q9Y251 36-109 limits assumed): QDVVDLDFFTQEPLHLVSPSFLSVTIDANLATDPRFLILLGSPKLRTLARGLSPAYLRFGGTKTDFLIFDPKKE
Put plainly: AGA*IA assay: heparanase-catalyzed fondaparinux cleavage, colorimetric (WST-1). The format is biochemical. To be noted: 2.5 nM heparanase, 100 µM fondaparinux, pH 5.0, 3 h at 37°C; class symbols; read-out: AGAIA assay (IC50). Here is the method: All compounds were tested in a simple, accurate and robust microplate assay based on the cleavage of the synthetic heparin fragment, the pentasaccharide Fondaparinux (AGA*IA). This assay was originally developed by Hammond and coworkers [Hammond E, Li CP, Ferro V. Development of a colorimetric assay for heparanase activity suitable for kinetic analysis and inhibitor screening. […] Fondaparinux is cleaved by heparanase to generate a reducing disaccharide, which can be quantitatively measured via a colorimetric or a fluorescence assay, the last by the fluorescent sensor polymer-H [Schiemann S, Lühn S, Alban S. Development of both colorimetric and fluorescence heparinase activity assays using fondaparinux as substrate.
The assay measures the appearance of the disaccharide product of heparanase-catalyzed fondaparinux cleavage colorimetrically using the tetrazolium salt WST-1. Assay was essentially performed as described with minor modifications. Briefly, NUNC ELISA 96-well plates were pre-treated with a solution of 4% BSA (bovin serum albumin) in phosphate-buffered saline containing 0.05% Tween 20 (PBST), for 2 h at 37°C, then washed three times with PBST, dried by tapping on paper towel and stored at -20°C. Before use, once again, the plates were washed with PBST.
Then, the absorbance at 560 nm was measured through a microplate reader (Victor 3, Perkin Elmer).
Finally, the measurements were corrected by subtracting both the reagent background and the inner absorbance value of test compound.

Bounds are passed on as bounds.

As a reminder, the inhibition is the percentage by which the read-out fell short of the control. Take `Cc1ccc(C(=O)Nc2ccc(S(=O)(=O)O)c3cc(S(=O)(=O)O)cc(S(=O)(=O)O)c23)cc1NC(=O)c1cccc(NC(=O)Nc2cccc(C(=O)Nc3cc(C(=O)Nc4ccc(S(=O)(=O)O)c5cc(S(=O)(=O)O)cc(S(=O)(=O)O)c45)ccc3C)c2)c1` [Suramin, reference compound]: the “Adhesion Assay (%) U87MG” value with U87MG [1] (Conc. 10 µM) was “∼ 73%”. In the test with U2OS (Conc. 10 µM), the “Invasion Assay Inhibition (%) U2OS” value is reported as “-”. For the same compound, the “Invasion Assay Inhibition (%) U87MG” value in the test with U87MG [2] (Conc. 10 µM) is reported as “-”. Also, the “Adhesion Assay (%) HT1080” value in test [3] (HT1080, Conc. 10 µM) is “∼ 100%”. For the same compound, the inhibition at 10 µM in test [4] (HT-1080, HT1080, Conc. 10 µM) is less than 50%. Also, the EC50 in [5], in test [6] and in test [7] was greater than 10 µM throughout.

`O=C(Nc1ccc(-c2nc3ccccc3[nH]2)cc1)c1ccc(C(=O)Nc2ccc(-c3nc4ccccc4[nH]3)cc2)cc1` [SST0856, 1,4-Benzenedicarboxamide, N1,N4-bis[4-(1H-benzimidazol-2-yl)phenyl]-]: the “Adhesion Assay (%) U87MG” value with U87MG [1] (Conc. 2.5 µM) is recorded as “∼ 99%”. In addition, the “Gene Expression (% mRNA vs. control) MMP-9” value in the test on MMP-9 is reported as “∼ 55%”. In addition, the “Gene Expression (% mRNA vs. control) FGF-2” value in the test on FGF-2 is given as “∼ 76%”. For the same compound, in the test with FGF-1, the “Gene Expression (% mRNA vs. control) FGF-1” value was “∼ 53%”. Further, the “Gene Expression (% mRNA vs. control) VEGF” value in the test on VEGF is “∼ 54%”. The inhibition at 2.5 µM was 50 to 90% with U2OS, less than 50% with U87MG [2] and less than 50% in test [4]. Moreover, the “potency in silencing gene expression” value in [8] is “in the same range of reference compound SST0001”. The “Adhesion Assay (%) HT1080” value in [3] (HT1080, Conc. 2.5 µM) was “∼ 98%”.

Consider `O=C(O)c1ccc2c(c1)C(=O)N(c1ccc(NC(=O)c3cccc(C(=O)Nc4ccc(N5C(=O)c6ccc(C(=O)O)cc6C5=O)cc4Cl)c3)c(Cl)c1)C2=O` [SST0859, 2-[4-[[3-[[4-(5-carboxy-1,3-dioxoisoindol-2-yl)-2-chlorophenyl]carbamoyl]benzoyl]amino]-3-chlorophenyl]-1,3-dioxoisoindole-5-carboxylic acid], for which the “Adhesion Assay (%) U87MG” value in the test with U87MG [1] (Conc. 2.5 µM) was “∼ 100%”. Moreover, the “Gene Expression (% mRNA vs. control) MMP-9” value in the test on MMP-9 was “∼ 40%”. Further, the “Gene Expression (% mRNA vs. control) FGF-2” value with FGF-2 is “∼ 73%”. Further, the “Gene Expression (% mRNA vs. control) FGF-1” value in the test on FGF-1 is “∼ 67%”. In addition, the “Gene Expression (% mRNA vs. control) VEGF” value in the test with VEGF is given as “∼ 61%”. Further, the inhibition at 2.5 µM in the test on U2OS is 50 to 90%; with U87MG [2], less than 50%; in test [4] it was less than 50%. The “potency in silencing gene expression” value in [8] is reported as “in the same range of reference compound SST0001”. Also, the “Adhesion Assay (%) HT1080” value in [3] (HT1080, Conc. 2.5 µM) is reported as “∼ 95%”.

By IC50 is commonly meant the concentration that gives 50% inhibition. Regarding `O=C(Nc1cccc(-c2nc3ccccc3[nH]2)c1)c1ccc(Oc2ccc(C(=O)Nc3cccc(-c4nc5ccccc5[nH]4)c3)cc2)cc1` [SST0656, N-[3-(1H-benzimidazol-2-yl)phenyl]-4-[4-[[3-(1H-benzimidazol-2-yl)phenyl]carbamoyl]phenoxy]benzamide], the “Adhesion Assay (%) U87MG” value with U87MG [1] (Conc. 2.5 µM) is reported as “∼ 97%”. The inhibition at 2.5 µM (with U2OS; with U87MG [2]; in [4]) was less than 50% throughout. The “Adhesion Assay (%) HT1080” value in [3] (HT1080, Conc. 2.5 µM) was “∼ 87%”. The EC50 in [5], in test [6] and in test [7] was greater than 2.5 µM throughout. In addition, on heparanase, the IC50 lay within 0.05 to 0.49 µM.

Consider `O=C(O)/C=C/C(=O)Nc1ccc(Sc2ccc(Oc3ccc(Sc4ccc(NC(=O)/C=C/C(=O)O)cc4)cc3)cc2)cc1` [SST0806, (E)-4-[4-[4-[4-[4-[[(E)-3-carboxyprop-2-enoyl]amino]phenyl]sulfanylphenoxy]phenyl]sulfanylanilino]-4-oxobut-2-enoic acid], for which the EC50 in test [5], in test [6] and in [7] was greater than 2.5 µM throughout. The IC50 at heparanase lay in the range of 0.5 to 0.99 µM.

For the origin of these results see patent EP3381906A1, “COMPOUNDS FOR USE AS HEPARANASE INHIBITORS” (Leadiant Biosciences SA, priority 2017, dated 2018).
